From the supplement of paper PMC10733146

Tests used:
Assay in all cases: viability relative to DMSO control (fraction); higher = less drug effect (more viable cells)
Conditions in all cases: 48 h
[1] = test system: primary DLBCL patient cells (S082)
In short: (§1)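 Using 384-well plates with compounds already plated at five concentrations, one well per concentration, 4 × 10^4 primary mononuclear tumour cells were added per well. Cells were Ficoll-isolated from blood or bone marrow or came from processed lymph node, fresh or cryopreserved. They were kept for 48 h at 37 °C and 5% CO2 in RPMI-1640 supplemented with penicillin/streptomycin, L-glutamine and human serum, and viability was read as CellTiter-Glo luminescence relative to the median of 16 inner DMSO wells.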

[2] = test system: primary AML patient cells (S091)
In short: as §1

[3] = test system: primary MCL patient cells (S041)
In short: as §1

[4] = test system: primary B-PLL patient cells (S016)
In short: as §1

[5] = test system: primary AML patient cells (S019)
In short: as §1

[6] = test system: primary AML patient cells (S089)
In short: as §1

[7] = test system: primary AML patient cells (S071)
In short: as §1

[8] = test system: primary CLL patient cells (S031)
In short: as §1

[9] = test system: primary AML patient cells (S037)
In short: as §1

[10] = test system: primary AML patient cells (S060)
In short: as §1

[11] = test system: primary FL patient cells (S087)
In short: as §1

[12] = test system: primary AML patient cells (S011)
In short: as §1

[13] = test system: primary AML patient cells (S085)
In short: as §1

[14] = test system: primary ALL patient cells (S088)
In short: as §1

Structure (SMILES): Nc1nc(=S)c2[nH]cnc2[nH]1 [Thioguanin]
- viability ([1]; 0.024 µM): 1.01
- viability ([1]; 0.12 µM): 0.972
- viability ([1]; 0.6 µM): 0.844
- viability ([1]; 3 µM): 0.602
- viability ([1]; 15 µM): 0.457
- viability ([2]; 0.024 µM): 0.859
- viability ([2]; 0.12 µM): 0.817
- viability ([2]; 0.6 µM): 0.919
- viability ([2]; 3 µM): 0.6
- viability ([2]; 15 µM): 0.254
- viability ([3]; 0.024 µM): 1.02
- viability ([3]; 0.12 µM): 0.879
- viability ([3]; 0.6 µM): 0.681
- viability ([3]; 3 µM): 0.515
- viability ([3]; 15 µM): 0.388
- viability ([4]; 0.024 µM): 0.919
- viability ([4]; 0.12 µM): 0.71
- viability ([4]; 0.6 µM): 0.403
- viability ([4]; 3 µM): 0.23
- viability ([4]; 15 µM): 0.212
- viability ([5]; 0.024 µM): 1.04
- viability ([5]; 0.12 µM): 1.18
- viability ([5]; 0.6 µM): 0.65
- viability ([5]; 3 µM): 0.497
- viability ([5]; 15 µM): 0.57
- viability ([6]; 0.024 µM): 0.765
- viability ([6]; 0.12 µM): 0.607
- viability ([6]; 0.6 µM): 0.648
- viability ([6]; 3 µM): 0.313
- viability ([6]; 15 µM): 0.0421
- viability ([7]; 0.024 µM): 1.02
- viability ([7]; 0.12 µM): 0.879
- viability ([7]; 0.6 µM): 0.577
- viability ([7]; 3 µM): 0.403
- viability ([7]; 15 µM): 0.228
- viability ([8]; 0.024 µM): 1.07
- viability ([8]; 0.12 µM): 0.972
- viability ([8]; 0.6 µM): 0.801
- viability ([8]; 3 µM): 0.613
- viability ([8]; 15 µM): 0.327
- viability ([9]; 0.024 µM): 1
- viability ([9]; 0.12 µM): 0.937
- viability ([9]; 0.6 µM): 0.701
- viability ([9]; 3 µM): 0.481
- viability ([9]; 15 µM): 0.395
- viability ([10]; 0.024 µM): 1.03
- viability ([10]; 0.12 µM): 0.969
- viability ([10]; 0.6 µM): 0.697
- viability ([10]; 3 µM): 0.643
- viability ([10]; 15 µM): 0.424
- viability ([11]; 0.024 µM): 0.998
- viability ([11]; 0.12 µM): 0.952
- viability ([11]; 0.6 µM): 0.804
- viability ([11]; 3 µM): 0.688
- viability ([11]; 15 µM): 0.645
- viability ([12]; 0.024 µM): 1.02
- viability ([12]; 0.12 µM): 0.977
- viability ([12]; 0.6 µM): 0.658
- viability ([12]; 3 µM): 0.339
- viability ([12]; 15 µM): 0.239
- viability ([13]; 0.024 µM): 1.03
- viability ([13]; 0.12 µM): 1
- viability ([13]; 0.6 µM): 0.714
- viability ([13]; 3 µM): 0.402
- viability ([13]; 15 µM): 0.24
- viability ([14]; 0.024 µM): 1.03
- viability ([14]; 0.12 µM): 1.08
- viability ([14]; 0.6 µM): 0.904
- viability ([14]; 3 µM): 0.565
- viability ([14]; 15 µM): 0.281

Structure (SMILES): Nc1nc(Cl)nc2c1ncn2[C@@H]1O[C@H](CO)[C@@H](O)[C@@H]1F [Clofarabine]
- viability ([1]; 0.024 µM): 0.834
- viability ([1]; 0.12 µM): 0.53
- viability ([1]; 0.6 µM): 0.377
- viability ([1]; 3 µM): 0.362
- viability ([1]; 15 µM): 0.319
- viability ([2]; 0.024 µM): 0.661
- viability ([2]; 0.12 µM): 0.527
- viability ([2]; 0.6 µM): 0.482
- viability ([2]; 3 µM): 0.459
- viability ([2]; 15 µM): 0.425
- viability ([3]; 0.024 µM): 0.862
- viability ([3]; 0.12 µM): 0.254
- viability ([3]; 0.6 µM): 0.0698
- viability ([3]; 3 µM): 0.0397
- viability ([3]; 15 µM): 0.0361
- viability ([4]; 0.024 µM): 0.711
- viability ([4]; 0.12 µM): 0.332
- viability ([4]; 0.6 µM): 0.0601
- viability ([4]; 3 µM): 0.034
- viability ([4]; 15 µM): 0.0319
- viability ([5]; 0.024 µM): 0.918
- viability ([5]; 0.12 µM): 0.476
- viability ([5]; 0.6 µM): 0.392
- viability ([5]; 3 µM): 0.431
- viability ([5]; 15 µM): 0.345
- viability ([6]; 0.024 µM): 0.851
- viability ([6]; 0.12 µM): 0.737
- viability ([6]; 0.6 µM): 0.506
- viability ([6]; 3 µM): 0.461
- viability ([6]; 15 µM): 0.327
- viability ([7]; 0.024 µM): 0.646
- viability ([7]; 0.12 µM): 0.298
- viability ([7]; 0.6 µM): 0.219
- viability ([7]; 3 µM): 0.217
- viability ([7]; 15 µM): 0.211
- viability ([8]; 0.024 µM): 0.424
- viability ([8]; 0.12 µM): 0.0924
- viability ([8]; 0.6 µM): 0.0411
- viability ([8]; 3 µM): 0.0349
- viability ([8]; 15 µM): 0.0384
- viability ([9]; 0.024 µM): 1.01
- viability ([9]; 0.12 µM): 0.834
- viability ([9]; 0.6 µM): 0.656
- viability ([9]; 3 µM): 0.651
- viability ([9]; 15 µM): 0.627
- viability ([10]; 0.024 µM): 1.09
- viability ([10]; 0.12 µM): 1.06
- viability ([10]; 0.6 µM): 0.723
- viability ([10]; 3 µM): 0.402
- viability ([10]; 15 µM): 0.126
- viability ([11]; 0.024 µM): 0.823
- viability ([11]; 0.12 µM): 0.673
- viability ([11]; 0.6 µM): 0.587
- viability ([11]; 3 µM): 0.536
- viability ([11]; 15 µM): 0.547
- viability ([12]; 0.024 µM): 0.762
- viability ([12]; 0.12 µM): 0.535
- viability ([12]; 0.6 µM): 0.299
- viability ([12]; 3 µM): 0.17
- viability ([12]; 15 µM): 0.0898
- viability ([13]; 0.024 µM): 0.897
- viability ([13]; 0.12 µM): 0.41
- viability ([13]; 0.6 µM): 0.286
- viability ([13]; 3 µM): 0.468
- viability ([13]; 15 µM): 0.555
- viability ([14]; 0.024 µM): 0.569
- viability ([14]; 0.12 µM): 0.254
- viability ([14]; 0.6 µM): 0.203
- viability ([14]; 3 µM): 0.173
- viability ([14]; 15 µM): 0.109
